Reference: patent US10519177B2, “Heterocyclic compounds and uses thereof” (Plexxikon Inc., priority 2013, dated 2019)

Key:
[1] = molecular target: BRD4-BD1 (44-164) (Homo sapiens (Human), UniProt O60885); assay: Alphascreen binding assay BRD4-BD1; details: BRD4(1) H4; read-out: Biochemical activity (IC50 μM) BRD4(1) H4
How it was run: (§1)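 In this competition format, compounds displace a biotinylated tetra-acetyl H4 peptide from E. coli-expressed human BRD4 bromodomain constructs captured on nickel chelate beads. The reaction runs at pH 7.5 with 2 mM DTT and detergent for 1 h at room temperature before a 30 min bead step.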

[2] = molecular target: BRD4-BD12 (1-477) (Homo sapiens (Human), UniProt O60885); assay: Alphascreen binding assay BRD4-BD12; details: BRD4(1 2) H4; read-out: Biochemical activity (IC50 μM) BRD4(1 2) H4
How it was run: as §1

[3] = system: MV-4-11 cells; assay: Oncology cell growth assay MV-4-11 (CellTiter Glo); assay type: cell-based; details: Homo sapiens, MV4-11, 72 h; read-out: Cell activity (IC50 μM) MV-4-11 3d-Growth
How it was run: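 Growth read by CellTiter Glo luminescence after 72 h compound treatment of MLL-AF4-bearing MV-4-11 cells (3000/well). Titration: 8 points, 1:3 steps, maximum 10 μM, 0.2% DMSO final. Data normalized to DMSO wells, four-parameter fit gives pIC50.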

[4] = system: bromodomain; assay: at least one of the bromodomain cell assays of Example 57; assay type: cell-based; details: at least one of the bromodomain cell assays described in Example 57; read-out: IC50 in at least one of the bromodomain cell assays

Cc1noc(C)c1-c1cnc2c(-c3ccc(=O)n(C)c3)cn(C(C)c3ccccc3)c2c1 (stereo not drawn) [P-0274, 5-[6-(3,5-dimethylisoxazol-4-yl)-1-(1-phenylethyl)pyrrolo[3,2-b]pyridin-3-yl]-1-methyl-pyridin-2-one]
IC50 [1]: < 1 µM
IC50 [2]: < 1 µM
IC50 [3]: < 1 µM
IC50 [4]: < 10000 nM

Cc1noc(C)c1-c1cnc2c(-c3ccc(O)nc3)cn(C(C)c3ccccc3)c2c1 (stereo not drawn) [P-0270, 5-[6-(3,5-dimethylisoxazol-4-yl)-1-(1-phenylethyl)pyrrolo[3,2-b]pyridin-3-yl]pyridin-2-ol]
IC50 [1]: < 1 µM
IC50 [2]: < 1 µM
IC50 [3]: < 1 µM
IC50 [4]: < 10000 nM

Cc1noc(C)c1-c1cnc2c(-c3cnn(C)c3)cn(Cc3ncccn3)c2c1 [P-0325, 3,5-dimethyl-4-[3-(1-methylpyrazol-4-yl)-1-(pyrimidin-2-ylmethyl)pyrrolo[3,2-b]pyridin-6-yl]isoxazole]
IC50 [1]: < 1 µM
IC50 [2]: < 1 µM
IC50 [3]: < 1 µM
IC50 [4]: < 10000 nM

Cc1noc(C)c1-c1cnc2c(-c3cnn(CC(F)(F)F)c3)cn(C(CC#N)c3ccccc3)c2c1 (stereo not drawn) [P-0332, 3-[6-(3,5-dimethylisoxazol-4-yl)-3-[1-(2,2,2-trifluoroethyl)pyrazol-4-yl]pyrrolo[3,2-b]pyridin-1-yl]-3-phenyl-propanenitrile]
IC50 [1]: < 1 µM
IC50 [2]: < 1 µM
IC50 [3]: < 1 µM
IC50 [4]: < 10000 nM

Cc1noc(C)c1-c1cnc2c(-c3cnn(CC(F)(F)F)c3)cn(CC3CC(F)(F)C3)c2c1 [P-0305, 4-[1-[(3,3-difluorocyclobutyl)methyl]-3-[1-(2,2,2-trifluoroethyl)pyrazol-4-yl]pyrrolo[3,2-b]pyridin-6-yl]-3,5-dimethyl-isoxazole]
IC50 [1]: < 1 µM
IC50 [2]: < 1 µM
IC50 [3]: < 1 µM
IC50 [4]: < 10000 nM

Cc1ccc(-c2cnc3ccn(CC4CCC(F)(F)CC4)c3c2)cn1 [P-0313, 1-[(4,4-difluorocyclohexyl)methyl]-6-(6-methyl-3-pyridyl)pyrrolo[3,2-b]pyridine]
IC50 [1]: 10 to 200 µM
IC50 [2]: < 1 µM
IC50 [3]: 10 to 200 µM
IC50 [4]: < 10000 nM

Cc1noc(C)c1-c1cnc2c(-c3cnn(C(F)F)c3)cn(Cc3ccccc3)c2c1 [P-0326, 4-[1-benzyl-3-[1-(difluoromethyl)pyrazol-4-yl]pyrrolo[3,2-b]pyridin-6-yl]-3,5-dimethyl-isoxazole]
IC50 [1]: < 1 µM
IC50 [2]: < 1 µM
IC50 [3]: < 1 µM
IC50 [4]: < 10000 nM

Cc1nnn(C)c1-c1cnc2ccn(CC3CCC(F)(F)CC3)c2c1 [P-0291, l-[(4,4-difluorocyclohexyl)methyl]-6-(3,5-dimethyltriazol-4-yl)pyrrolo[3,2-b]pyridine]
IC50 [1]: < 1 µM
IC50 [2]: 10 to 200 µM
IC50 [3]: 1 to 10 µM
IC50 [4]: < 10000 nM

Cc1ccc(-c2cn(C(C)c3ccccc3)c3cc(-c4c(C)noc4C)cnc23)cn1 (stereo not drawn) [P-0272, 3,5-dimethyl-4-[3-(6-methyl-3-pyridyl)-1-(1-phenylethyl)pyrrolo[3,2-b]pyridin-6-yl]isoxazole]
IC50 [1]: < 1 µM
IC50 [2]: < 1 µM
IC50 [3]: < 1 µM
IC50 [4]: < 10000 nM

Cc1noc(C)c1-c1cnc2c(Br)cn(C(CC#N)C3CC3)c2c1 (stereo not drawn) [P-0308, 3-[3-bromo-6-(3,5-dimethylisoxazol-4-yl)pyrrolo[3,2-b]pyridin-1-yl]-3-cyclopropxl-propanenitrile]
IC50 [1]: < 1 µM
IC50 [2]: < 1 µM
IC50 [3]: < 1 µM
IC50 [4]: < 10000 nM

Cc1noc(C)c1-c1cnc2c(-c3cnn(C)c3)cn(Cc3ccccc3)c2c1 [P-0327, 4-[1-benzyl-3-(1-methylpyrazol-4-yl)pyrrolo[3,2-b]pyridin-6-yl]-3,5-dimethyl-isoxazole]
IC50 [1]: < 1 µM
IC50 [2]: < 1 µM
IC50 [3]: < 1 µM
IC50 [4]: < 10000 nM

Cc1noc(C)c1-c1cnc2c(-c3cccnc3)cn(C(C)c3ccccc3)c2c1 (stereo not drawn) [P-0267]
IC50 [1]: < 1 µM
IC50 [2]: < 1 µM
IC50 [3]: < 1 µM
IC50 [4]: < 10000 nM

Cc1noc(C)c1-c1cnc2c(-c3cnc(N)cn3)cn(C(C)c3ccccc3)c2c1 (stereo not drawn) [P-0279, 5-[6-(3,5-dimethylisoxazol-4-yl)-1-(1-phenylethyl)pyrrolo[3,2-b]pyridin-3-yl]pyrazin-2-amine]
IC50 [1]: < 1 µM
IC50 [2]: < 1 µM
IC50 [3]: < 1 µM
IC50 [4]: < 10000 nM

Cc1noc(C)c1-c1cnc2c(-c3cnn(CC(F)(F)F)c3)cn(C(CC#N)C3CC3)c2c1 (stereo not drawn) [P-0315, 3-cyclopropyl-3-[6-(3,5-dimethylisoxazol-4-yl)-3-[1-(2,2,2-trifluoroethyl)pyrazol-4-yl]pyrrolo[3,2-b]pyridin-1-yl]propanenitrile]
IC50 [1]: < 1 µM
IC50 [2]: < 1 µM
IC50 [3]: < 1 µM
IC50 [4]: < 10000 nM

Cc1noc(C)c1-c1cnc2c(-c3cnn(CCN4CCOCC4)c3)cn(CC3CCC(F)(F)CC3)c2c1 [P-0296, 4-[2-[4-[1-[(4,4-difluorocyclohexyl)methyl]-6-(3,5-dimethylisoxazol-4-yl)pyrrolo[3,2-b]pyridin-3-yl]pyrazol-1-yl]ethyl]morpholine]
IC50 [1]: < 1 µM
IC50 [2]: < 1 µM
IC50 [3]: < 1 µM
IC50 [4]: < 10000 nM

Cc1oncc1-c1cnc2ccn(CC3CCC(F)(F)CC3)c2c1 [P-0283, 4-[1-[(4,4-difluorocyclohexyl)methyl]pyrrolo[3,2-b]pyridin-6-yl]-5-methyl-isoxazole]
IC50 [1]: 1 to 10 µM
IC50 [2]: 1 to 10 µM
IC50 [3]: 1 to 10 µM
IC50 [4]: < 10000 nM

Cc1nnc(CCl)n1-c1cnc2[nH]ccc2c1 [P-0322, 5-[3-(chloromethyl)-5-methyl-1,2,4-triazol-4-yl]-1H-pyrrolo[2,3-b]pyridine]
IC50 [1]: 10 to 200 µM
IC50 [2]: 10 to 200 µM
IC50 [3]: 1 to 10 µM
IC50 [4]: < 10000 nM

COc1ccc(-c2cn(C(C)c3ccccc3)c3cc(-c4c(C)noc4C)cnc23)cn1 (stereo not drawn) [P-0271, 4-[3-(6-methoxy-3-pyridyl)-1-(1-phenylethyl)pyrrolo[3,2-b]pyridin-6-yl]-3,5-dimethyl-isoxazole]
IC50 [1]: < 1 µM
IC50 [2]: < 1 µM
IC50 [3]: < 1 µM
IC50 [4]: < 10000 nM

Cc1noc(C)c1-c1cnc2c(-c3cnco3)cn(C(C)c3ccccc3)c2c1 (stereo not drawn) [P-0301, 3,5-dimethyl-4-[3-oxazol-5-yl-1-(1-phenylethyl)pyrrolo[3,2-b]pyridin-6-yl]isoxazole]
IC50 [1]: < 1 µM
IC50 [2]: < 1 µM
IC50 [3]: < 1 µM
IC50 [4]: < 10000 nM

Cc1noc(C)c1-c1cnc2c(I)cn(Cc3ccccc3)c2c1 [P-0318, 4-(1-benzyl-3-iodo-pyrrolo[3,2-b]pyridin-6-yl)-3,5-dimethyl-isoxazole]
IC50 [1]: < 1 µM
IC50 [2]: < 1 µM
IC50 [3]: < 1 µM
IC50 [4]: < 10000 nM

Cc1noc(C)c1-c1cnc2c(-c3cnn(CC(F)(F)F)c3)cn(Cc3ccccc3)c2c1 [P-0317, 4-[1-benzyl-3-[1-(2,2,2-trifluoroethyl)pyrazol-4-yl]pyrrolo[3,2-b]pyridin-6-yl]-3,5-dimethyl-isoxazole]
IC50 [1]: < 1 µM
IC50 [2]: < 1 µM
IC50 [3]: < 1 µM
IC50 [4]: < 10000 nM

Cc1noc(C)c1-c1cnc2c(Cl)cn(C(CC#N)C3CCCC3)c2c1 (stereo not drawn) [P-0290, 3-[3-chloro-6-(3,5-dimethylisoxazol-4-yl)pyrrolo[3,2-b]pyridin-1-yl]-3-cyclopentyl-propanenitrile]
IC50 [1]: < 1 µM
IC50 [2]: < 1 µM
IC50 [3]: < 1 µM
IC50 [4]: < 10000 nM

Cc1noc(C)c1-c1cnc2c(I)cn(CC3CC(F)(F)C3)c2c1 [P-0303, 4-[1-[(3,3-difluorocyclobutyl)methyl]-3-iodo-pyrrolo[3,2-b]pyridin-6-yl]-3,5-dimethyl-isoxazole]
IC50 [1]: < 1 µM
IC50 [2]: < 1 µM
IC50 [3]: < 1 µM
IC50 [4]: < 10000 nM

Cc1noc(C)c1-c1cnc2c(-c3cnn(CC(F)(F)F)c3)cn(C(CC#N)C3CCCC3)c2c1 (stereo not drawn) [P-0266, 3-cyclopentyl-3-[6-(3,5-dimethylisoxazol-4-yl)-3-[1-(2,2,2-trifluoroethyl)pyrazol-4-yl]pyrrolo[3,2-b]pyridin-1-vl]propanenitrile]
IC50 [1]: < 1 µM
IC50 [2]: < 1 µM
IC50 [3]: < 1 µM
IC50 [4]: < 10000 nM

COc1ncc(-c2cn(C(C)c3ccccc3)c3cc(-c4c(C)noc4C)cnc23)cn1 (stereo not drawn) [P-0275, 4-[3-(2-methoxypyrimidin-5-yl)-1-(1-phenylethyl)pyrrolo[3,2-b]pyridin-6-yl]-3,5-dimethyl-isoxazole]
IC50 [1]: < 1 µM
IC50 [2]: < 1 µM
IC50 [3]: < 1 µM
IC50 [4]: < 10000 nM

Cc1noc(C)c1-c1cnc2c(I)cn(C(CC#N)C3CC3)c2c1 (stereo not drawn) [P-0309, 3-cyclopropyl-3-[6-(3,5-dimethylisoxazol-4-yl)-3-iodo-pyrrolo[3,2-b]pyridin-1-yl]propanenitrile]
IC50 [1]: < 1 µM
IC50 [2]: < 1 µM
IC50 [3]: < 1 µM
IC50 [4]: < 10000 nM

Cc1noc(C)c1-c1cnc2c(I)cn(Cc3ncccn3)c2c1 [P-0319, 4-[3-iodo-1-(pyrimidin-2-ylmethyl)pyrrolo[3,2-b]pyridin-6-yl]-3,5-dimethyl-isoxazole]
IC50 [1]: < 1 µM
IC50 [2]: < 1 µM
IC50 [3]: < 1 µM
IC50 [4]: < 10000 nM
